Measurements reported in patent US6222035A, “[1,2,4] triazolo [1,5-C] pyrimidine derivatives” (Kyowa Hakko Kogyo Co., Ltd., priority 1997, dated 2001).

System: CGS 21680-induced catalepsy in mice
Assay: Activity on CGS 21680-induced Catalepsy
Assay type: in vivo, mouse (male ddY)
Details: 10 mg/kg oral; for Total score (catalepsy): 10 animals, maximum 50 points, control 48; for Number of Animals showing remission: catalepsy score 4 points or less in 10 cases; for inhibition in vivo at 10 mg/kg: Mus musculus, CGS 21680-induced catalepsy, read-out: Remission ratio (%)
Protocol: Activity on CGS 21680-induced Catalepsy
Parkinson's disease is motor deficit based on the degeneration and cell death of the nigrostriatal dopaminergic neuron. […] [Journal of Neuroscience, 16: 605 (1996)]. Accordingly, it is considered that adenosine A2A receptor agonists positively regulate the output of the striopallidal GABAergic neurons and, as a result, catalepsy is induced by the administration of CGS 21680.
This test was carried out using 10 animals per group of male ddY mice of 5 week age (22 to 25 g in body weight, Japan SLC). CGS 21680 (manufactured by RBI) was dissolved in a physiological saline (manufactured by Otsuka Pharmaceutical), and 10 μg/20 μl of the solution was injected into mouse intracerebro-ventricle. Test compounds were used by suspending them in distilled water containing 0.3% of polyoxyethylene(20)sorbitan monooleate (hereinafter referred to as "Tween 80") (manufactured by Otsuka Pharmaceutical). […] One hour after the administration of the test compound, only forelimbs or only hindlimbs of each animal were laid on a vertically arranged stand made of acryl, having a size of 4.5 cm in height and 1.0 cm in width, to measure catalepsy symptoms. All of the compounds were administered orally in a dose of 10 mg/kg.
The effect was judged by total catalepsy scores of 10 animals in one group (the maximum is 50 points). When the total score was 40 points or less, the activity of drugs was judged positive. The number of animals showing remission of catalepsy was expressed by the number of cases in which the catalepsy score was 4 points or less in 10 cases. The catalepsy remission ratio was expressed as the percentage of the total score in the test compound-administered group to the total score in the control group.

Cc1ncc(CN2CCN(c3cc4nc(-c5ccco5)nn4c(N)n3)CC2)s1 [Compound 145, 5-Amino-2-(2-furyl)-7-(4-(2-methylthiazol-5-ylmethyl)piperazinyl)[1,2,4]triazolo[1,5-c]pyrimidine]
Total score (catalepsy): 3
Number of Animals showing remission: 10
inhibition in vivo at 10 mg/kg: 92%

Nc1ncc(C=O)c2nc(-c3ccco3)nn12 [Compound 163, 5-Amino-8-formyl-2-(2-furyl)[1,2,4]triazolo[1,5-c]pyrimidine]
Total score (catalepsy): 3
Number of Animals showing remission: 10
inhibition in vivo at 10 mg/kg: 94%

Nc1nc(N2CCN(Cc3csnn3)CC2)cc2nc(-c3ccco3)nn12 [Compound 143, 5-Amino-2-(2-furyl)-7-(4-(1,2,3-thiadiazol-4-ylmethyl)piperazinyl)-2-(2-furyl)[1,2,4]triazolo[1,5-c]pyrimidine]
Total score (catalepsy): 0
Number of Animals showing remission: 10
inhibition in vivo at 10 mg/kg: 98%

C=CCCN1CCN(c2cc3nc(-c4ccco4)nn3c(N)n2)CC1 [Compound 125, 5-Amino-2-(2-furyl)-7-(4-homoallylpiperazinyl)[1,2,4]triazolo[1,5-c]pyrimidine]
Total score (catalepsy): 13
Number of Animals showing remission: 10
inhibition in vivo at 10 mg/kg: 74%

Cc1c(N2CCN(CCO)CC2)nc(N)n2nc(-c3ccco3)nc12 [Compound 222, 5-Amino-2-(2-furyl)-7-(4-(2-hydroxyethyl)piperazinyl)-8-methyl[1,2,4]triazolo[1,5-c]pyrimidine]
Total score (catalepsy): 9
Number of Animals showing remission: 10
inhibition in vivo at 10 mg/kg: 80%

CC(C)CN1CCN(c2cc3nc(-c4ccco4)nn3c(N)n2)CC1 [Compound 136, 5-Amino-2-(2-furyl)-7-(4-(2-methylpropyl)piperazinyl)[1,2,4]triazolo[1,5-c]pyrimidine]
Total score (catalepsy): 1
Number of Animals showing remission: 10
inhibition in vivo at 10 mg/kg: 98%

Nc1nc(N2CCN(c3ncccn3)CC2)cc2nc(-c3ccco3)nn12 [Compound 64, 5-Amino-2-(2-furyl)-7-[4-(2-pyrimidyl)piperazinyl][1,2,4]triazolo[1,5-c]pyrimidine]
Total score (catalepsy): 5
Number of Animals showing remission: 10
inhibition in vivo at 10 mg/kg: 88%

Nc1nc(SCc2ccccc2F)cc2nc(-c3ccco3)nn12 [Compound 201, 5-Amino-7-(2-fluorobenzylthio)-2-(2-furyl)[1,2,4]triazolo[1,5-c]pyrimidine]
Total score (catalepsy): 10
Number of Animals showing remission: 10
inhibition in vivo at 10 mg/kg: 78%

Nc1nc(N2CCN(c3nc4ccccc4s3)CC2)cc2nc(-c3ccco3)nn12 [Compound 95, 5-Amino-7-(4-(2-benzothiazolyl)piperazinyl)-2-(2-furyl)[1,2,4]triazolo[1,5-c]pyrimidine]
Total score (catalepsy): 16
Number of Animals showing remission: 8
inhibition in vivo at 10 mg/kg: 66%

Nc1nc(N2CCN(CCCCF)CC2)cc2nc(-c3ccco3)nn12 [Compound 128, 5-Amino-7-(4-(4-fluorobutyl)piperazinyl)-2-(2-furyl)[1,2,4]triazolo[1,5-c]pyrimidine]
Total score (catalepsy): 9
Number of Animals showing remission: 10
inhibition in vivo at 10 mg/kg: 80%

COCCN1CCN(c2nc(N)n3nc(-c4ccco4)nc3c2C)CC1 [Compound 223, 5-Amino-2-(2-furyl)-7-(4-(2-methoxyethyl)piperazinyl)-8-methyl[1,2,4]triazolo[1,5-c]pyrimidine]
Total score (catalepsy): 15
Number of Animals showing remission: 9
inhibition in vivo at 10 mg/kg: 68%

COCCN1CCN(c2cc3nc(-c4ccco4)nn3c(N)n2)CC1 [Compound 74, 5-Amino-7-[4-(2-methoxyethyl)piperazinyl]-2-(2-furyl)[1,2,4]triazolo[1,5-c]pyrimidine]
Total score (catalepsy): 0
Number of Animals showing remission: 10
inhibition in vivo at 10 mg/kg: 98%

Nc1ncc(C(=O)N2CCCCC2)c2nc(-c3ccco3)nn12 [Compound 175]
Total score (catalepsy): 12
Number of Animals showing remission: 10
inhibition in vivo at 10 mg/kg: 74%

CC(C)N1CCN(c2cc3nc(-c4ccco4)nn3c(N)n2)CC1 [Compound 139, 5-Amino-2-(2-furyl)-7-(4-isopropylpiperazinyl)[1,2,4]triazolo[1,5-c]pyrimidine]
Total score (catalepsy): 10
Number of Animals showing remission: 9
inhibition in vivo at 10 mg/kg: 80%

CCN1CCN(c2cc3nc(-c4ccco4)nn3c(N)n2)CC1 [Compound 60, 5-Amino-7-(4-ethylpiperazinyl)-2-(2-furyl)[1,2,4]triazolo[1,5-c]pyrimidine]
Total score (catalepsy): 10
Number of Animals showing remission: 8
inhibition in vivo at 10 mg/kg: 76%

Nc1ncc(C(=O)N2CCOCC2)c2nc(-c3ccco3)nn12 [Compound 177]
Total score (catalepsy): 13
Number of Animals showing remission: 9
inhibition in vivo at 10 mg/kg: 72%

Nc1nc(N2CCN(Cc3ccsc3)CC2)cc2nc(-c3ccco3)nn12 [Compound 146]
Total score (catalepsy): 3
Number of Animals showing remission: 10
inhibition in vivo at 10 mg/kg: 94%

COC(=O)c1ccc(CSc2cc3nc(-c4ccco4)nn3c(N)n2)cc1 [Compound 190, 5-Amino-2-(2-furyl)-7-(4-methoxycarbonylbenzylthio)[1,2,4]triazolo[1,5-c]pyrimidine]
Total score (catalepsy): 13
Number of Animals showing remission: 10
inhibition in vivo at 10 mg/kg: 72%

Nc1nc(SCc2ccccc2C=O)cc2nc(-c3ccco3)nn12 [Compound 213, 5-Amino-7-(2-formylbenzylthio)-2-(2-furyl)[1,2,4]triazolo[1,5-c]pyrimidine]
Total score (catalepsy): 15
Number of Animals showing remission: 10
inhibition in vivo at 10 mg/kg: 70%

COCCOCCN1CCN(c2cc3nc(-c4ccco4)nn3c(N)n2)CC1 [Compound 104, 5-Amino-2-(2-furyl)-7-(4-(2-(2-methoxyethoxy)ethyl)piperazinyl)[1,2,4]triazolo[1,5-c]pyrimidine]
Total score (catalepsy): 4
Number of Animals showing remission: 10
inhibition in vivo at 10 mg/kg: 92%

Nc1nc(SCc2ccccc2Cl)cc2nc(-c3ccco3)nn12 [Compound 200, 5-Amino-7-(2-chlorobenzylthio)-2-(2-furyl)[1,2,4]triazolo[1,5-c]pyrimidine]
Total score (catalepsy): 14
Number of Animals showing remission: 9
inhibition in vivo at 10 mg/kg: 70%

CCC(C)N1CCN(c2cc3nc(-c4ccco4)nn3c(N)n2)CC1 (racemic) [Compound 140, (±)-5-Amino-2-(2-furyl)-7-(4-(1-methylpropyl)piperazinyl)[1,2,4]triazolo[1,5-c]pyrimidine]
Total score (catalepsy): 13
Number of Animals showing remission: 10
inhibition in vivo at 10 mg/kg: 74%

Nc1nc(SCc2ccncc2)cc2nc(-c3ccco3)nn12 [Compound 181, 5-Amino-2-(2-furyl)-7-(4-picolylthio)[1,2,4]triazolo[1,5-c]pyrimidine]
Total score (catalepsy): 14
Number of Animals showing remission: 8
inhibition in vivo at 10 mg/kg: 72%

Nc1nc(Oc2ccc(Br)cc2)cc2nc(-c3ccco3)nn12 [Compound 228]
Total score (catalepsy): 14
Number of Animals showing remission: 8
inhibition in vivo at 10 mg/kg: 72%

Nc1nc(N2CCN(CCO)CC2)cc2nc(-c3ccco3)nn12 [Compound 62, 5-Amino-2-(2-furyl)-7-[4-(2-hydroxyethyl)piperazinyl][1,2,4]triazolo[1,5-c]pyrimidine]
Total score (catalepsy): 4
Number of Animals showing remission: 10
inhibition in vivo at 10 mg/kg: 88%
